From ChEMBL document CHEMBL1909046, “DrugMatrix in vitro pharmacology data”

Tests used:
[1] = molecular target: T1, B2 bradykinin receptor (Homo sapiens, UniProt P30411); assay type: cell membranes, Membrane; settings: chem-1; also: in other assays of this panel Not Active means under 50% inhibition at 10 µM
T1 sequence (P30411 whole entry): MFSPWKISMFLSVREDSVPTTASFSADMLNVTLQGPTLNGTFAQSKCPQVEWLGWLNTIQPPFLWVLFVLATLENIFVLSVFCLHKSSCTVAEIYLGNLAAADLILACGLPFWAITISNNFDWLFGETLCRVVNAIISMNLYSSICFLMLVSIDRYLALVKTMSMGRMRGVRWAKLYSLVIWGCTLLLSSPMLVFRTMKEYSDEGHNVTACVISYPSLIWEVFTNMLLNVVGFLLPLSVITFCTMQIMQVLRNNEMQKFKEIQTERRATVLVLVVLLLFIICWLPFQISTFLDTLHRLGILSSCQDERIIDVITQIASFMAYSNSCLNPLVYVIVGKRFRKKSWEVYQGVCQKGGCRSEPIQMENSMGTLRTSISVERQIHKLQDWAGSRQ

[2] = molecular target: T2, Substance-K receptor (Homo sapiens, UniProt P21452); assay type: cell membranes, CHO, Membrane; settings: cho; also: in other assays of this panel Not Active means under 50% inhibition at 10 µM
T2 sequence (P21452 whole entry): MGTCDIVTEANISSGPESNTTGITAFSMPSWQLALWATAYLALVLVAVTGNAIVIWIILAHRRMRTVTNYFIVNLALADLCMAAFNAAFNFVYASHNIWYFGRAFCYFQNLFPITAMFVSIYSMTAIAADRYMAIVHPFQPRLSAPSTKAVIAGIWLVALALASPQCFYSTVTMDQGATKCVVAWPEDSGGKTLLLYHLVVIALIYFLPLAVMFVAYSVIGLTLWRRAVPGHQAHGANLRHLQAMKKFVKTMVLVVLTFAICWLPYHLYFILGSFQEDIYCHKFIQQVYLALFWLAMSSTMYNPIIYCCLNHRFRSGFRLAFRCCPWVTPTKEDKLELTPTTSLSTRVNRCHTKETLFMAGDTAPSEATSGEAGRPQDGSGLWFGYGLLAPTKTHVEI

[3] = molecular target: T3, Muscarinic acetylcholine receptor M2 (Homo sapiens, UniProt P08172); assay type: cell membranes, CHO-K1, Membrane; settings: cho-k1; also: in other assays of this panel Not Active means under 50% inhibition at 10 µM
T3 sequence (P08172 whole entry): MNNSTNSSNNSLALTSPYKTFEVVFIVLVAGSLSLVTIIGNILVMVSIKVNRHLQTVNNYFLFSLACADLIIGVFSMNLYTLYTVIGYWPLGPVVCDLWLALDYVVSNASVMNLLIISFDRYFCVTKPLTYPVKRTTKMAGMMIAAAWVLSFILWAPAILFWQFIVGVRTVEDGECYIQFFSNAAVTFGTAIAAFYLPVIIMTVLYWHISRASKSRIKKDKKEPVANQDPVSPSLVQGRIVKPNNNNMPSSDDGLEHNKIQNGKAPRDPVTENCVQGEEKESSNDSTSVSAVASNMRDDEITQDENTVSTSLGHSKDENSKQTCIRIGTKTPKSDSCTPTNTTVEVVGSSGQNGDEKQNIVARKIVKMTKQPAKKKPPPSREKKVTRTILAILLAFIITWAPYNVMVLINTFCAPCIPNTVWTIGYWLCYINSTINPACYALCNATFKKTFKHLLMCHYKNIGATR

[4] = molecular target: Epidermal growth factor receptor (Homo sapiens, UniProt P00533); assay: DRUGMATRIX: Protein Tyrosine Kinase, EGF Receptor enzyme inhibition (substrate: Poly(Glu:Tyr)); assay type: cell-based, Insect cells; settings: insect cells; Not Active = under 50% inhibition at 10 µM
[5] = molecular target: Adenosine receptor A2a (Homo sapiens, UniProt P29274); assay: DRUGMATRIX: Adenosine A2A radioligand binding (ligand: […]); assay type: cell membranes, HEK293, Membrane; settings: hek293; Not Active = under 50% inhibition at 10 µM

Measured: IC50

Adenosine receptor A2a, sequence (P29274 whole entry): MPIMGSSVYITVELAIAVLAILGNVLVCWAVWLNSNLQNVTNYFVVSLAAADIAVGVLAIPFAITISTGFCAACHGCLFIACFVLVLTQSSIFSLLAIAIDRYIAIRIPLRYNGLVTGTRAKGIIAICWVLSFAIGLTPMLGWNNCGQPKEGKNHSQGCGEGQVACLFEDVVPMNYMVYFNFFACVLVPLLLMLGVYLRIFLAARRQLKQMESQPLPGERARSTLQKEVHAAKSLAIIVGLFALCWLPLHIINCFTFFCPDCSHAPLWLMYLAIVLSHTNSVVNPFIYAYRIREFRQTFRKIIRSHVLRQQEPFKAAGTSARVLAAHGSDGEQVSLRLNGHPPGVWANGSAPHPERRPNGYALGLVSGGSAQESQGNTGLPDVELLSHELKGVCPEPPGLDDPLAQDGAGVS
Epidermal growth factor receptor, sequence (P00533 whole entry): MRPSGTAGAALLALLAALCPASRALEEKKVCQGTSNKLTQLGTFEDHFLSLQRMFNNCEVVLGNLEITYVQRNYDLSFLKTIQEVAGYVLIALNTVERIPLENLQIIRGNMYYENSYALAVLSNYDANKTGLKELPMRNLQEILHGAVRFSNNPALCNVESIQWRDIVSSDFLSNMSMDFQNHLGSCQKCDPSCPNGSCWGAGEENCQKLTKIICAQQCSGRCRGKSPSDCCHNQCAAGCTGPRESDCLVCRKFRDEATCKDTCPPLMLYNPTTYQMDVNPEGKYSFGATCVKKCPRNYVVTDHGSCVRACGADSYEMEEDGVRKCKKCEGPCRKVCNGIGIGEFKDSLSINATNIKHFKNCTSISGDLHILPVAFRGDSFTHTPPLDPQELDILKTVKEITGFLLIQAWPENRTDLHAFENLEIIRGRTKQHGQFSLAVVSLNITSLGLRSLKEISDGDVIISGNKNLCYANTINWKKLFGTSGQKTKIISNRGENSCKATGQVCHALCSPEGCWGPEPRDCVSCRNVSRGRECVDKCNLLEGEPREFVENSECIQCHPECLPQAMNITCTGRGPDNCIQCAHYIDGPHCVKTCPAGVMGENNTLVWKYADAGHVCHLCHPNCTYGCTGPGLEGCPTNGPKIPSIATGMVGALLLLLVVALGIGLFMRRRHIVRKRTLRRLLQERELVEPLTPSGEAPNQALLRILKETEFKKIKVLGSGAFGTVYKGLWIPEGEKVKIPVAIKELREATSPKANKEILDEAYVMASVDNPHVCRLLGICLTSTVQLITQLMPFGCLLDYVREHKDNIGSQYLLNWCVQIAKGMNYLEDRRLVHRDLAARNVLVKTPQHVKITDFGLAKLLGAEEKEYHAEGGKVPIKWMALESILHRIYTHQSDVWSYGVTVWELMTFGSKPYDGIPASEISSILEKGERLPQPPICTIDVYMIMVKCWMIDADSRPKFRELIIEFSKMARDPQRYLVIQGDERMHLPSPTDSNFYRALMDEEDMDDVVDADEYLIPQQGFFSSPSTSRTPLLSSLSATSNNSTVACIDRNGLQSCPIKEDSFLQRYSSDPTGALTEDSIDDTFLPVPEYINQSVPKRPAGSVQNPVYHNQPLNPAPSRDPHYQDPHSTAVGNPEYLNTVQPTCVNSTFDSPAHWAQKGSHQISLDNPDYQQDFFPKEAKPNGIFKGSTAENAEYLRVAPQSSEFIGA

O=C(c1ccccc1C(F)(F)F)N1CCC(Cc2ccccc2)CC1
Not Active: all assays above

O=C/C=C/c1ccccc1
Not Active: all assays above

Nc1ccc2c3c(cccc13)C(=O)NC2=O
Not Active: all assays above

COc1ccc(C(=O)N2CCCC2=O)cc1
Not Active: all assays above

O=c1cnn([C@@H]2O[C@H](CO)[C@@H](O)[C@H]2O)c(=O)[nH]1 [6-AZAURIDINE]
Not Active: all assays above

CC[C@H](C)[C@H]1O[C@]2(C=C[C@@H]1C)C[C@@H]1C[C@@H](C/C=C(\C)[C@@H](O[C@H]3C[C@H](OC)[C@@H](O[C@H]4C[C@H](OC)[C@@H](O)[C@H](C)O4)[C@H](C)O3)[C@@H](C)/C=C/C=C3\CO[C@@H]4[C@H](O)C(C)=C[C@@H](C(=O)O1)[C@]34O)O2.CO[C@H]1C[C@H](O[C@H]2[C@H](C)O[C@@H](O[C@@H]3/C(C)=C/C[C@@H]4C[C@@H](C[C@]5(C=C[C@H](C)[C@@H](C(C)C)O5)O4)OC(=O)[C@@H]4C=C(C)[C@@H](O)[C@H]5OC/C(=C\C=C\[C@@H]3C)[C@]54O)C[C@@H]2OC)O[C@@H](C)[C@@H]1O [ABAMECTIN]
Not Active: all assays above

NCCCC(O)(P(=O)(O)O)P(=O)(O)O [ALENDRONIC ACID]
Not Active: all assays above

Cc1nnc2n1-c1ccc(Cl)cc1C(c1ccccc1)=NC2 [ALPRAZOLAM]
Not Active: all assays above

Cn1c(=O)c2[nH]cnc2n(C)c1=O.Cn1c(=O)c2[nH]cnc2n(C)c1=O.NCCN [AMINOPHYLLINE]
not listed: [5]
Not Active: all other assays above

CCC1(CCC(C)C)C(=O)NC(=O)NC1=O [AMOBARBITAL]
Not Active: all assays above

CC1(C)S[C@@H]2[C@H](NC(=O)[C@H](N)c3ccccc3)C(=O)N2[C@H]1C(=O)O [AMPICILLIN]
Not Active: all assays above

COc1ccc(C2C(=O)c3ccccc3C2=O)cc1 [ANISINDIONE]
Not Active: all assays above

O=C1O[C@H]([C@@H](O)CO)C(O)=C1O [ASCORBIC ACID]
Not Active: all assays above

CN1[C@@H]2CC[C@H]1C[C@@H](OC(=O)C(CO)c1ccccc1)C2 (some centres not stated) [ATROPINE]
not listed: [3]
Not Active: all other assays above

CC(C(=O)O)c1ccc2oc(-c3ccc(Cl)cc3)nc2c1 (configuration not stated) [BENOXAPROFEN]
Not Active: all assays above

COc1ccc2cc3[n+](cc2c1OC)CCc1cc2c(cc1-3)OCO2.[Cl-] [BERBERINE CHLORIDE]
Not Active: all assays above

O=C(O)CCNC(=O)c1ccccc1 [BETAMIPRON]
Not Active: all assays above

CC(=O)Oc1ccc(C(c2ccc(OC(C)=O)cc2)c2ccccn2)cc1 [BISACODYL]
Not Active: all assays above

Cc1cc2c(OCC(CNC(C)(C)C)OC(=O)c3ccccc3)cccc2[nH]1 (configuration not stated) [BOPINDOLOL]
Not Active: all assays above

Brc1c(NC2=NCCN2)ccc2nccnc12 [BRIMONIDINE]
Not Active: all assays above

CN(C)[C@@H]1C(O)=C(C(N)=O)C(=O)[C@@]2(O)C(O)=C3C(=O)c4c(O)ccc(Cl)c4[C@@](C)(O)[C@H]3C[C@@H]12 [CHLORTETRACYCLINE]
Not Active: all assays above

CN/C(=N\CCSCc1nc[nH]c1C)NC#N [CIMETIDINE]
Not Active: all assays above

COc1cc(N)c(Cl)cc1C(=O)NC1CCN(CCCOc2ccc(F)cc2)CC1OC (configuration not stated) [CISAPRIDE]
Not Active: all assays above

CCC(=O)O[C@]1(C(=O)CCl)[C@@H](C)C[C@H]2[C@@H]3CCC4=CC(=O)C=C[C@]4(C)[C@@]3(F)[C@@H](O)C[C@@]21C [CLOBETASOL PROPIONATE]
Not Active: all assays above

O=C1CN=C(c2ccccc2Cl)c2cc([N+](=O)[O-])ccc2N1 [CLONAZEPAM]
Not Active: all assays above

Nc1ccn([C@@H]2O[C@H](CO)[C@@H](O)[C@@H]2O)c(=O)n1 [CYTARABINE]
Not Active: all assays above

O=c1cc(N2CCOCC2)oc2c(-c3ccccc3)cccc12 [LY-294002]
not listed: [4]
Not Active: all other assays above
